# Assays:
# [1] = test system: 2xF30-Broccoli RNA (Bi), transcript of T7 promoter-Broccoli template without operator (RNA, aptamer) UUGCCAUGUGUAUGUGGGAGACGGUCGGGUCCAGAUAUUCGUAUCUGUCGAGUAGAGUGUGGGCUCCCACAUACUCUGAUGAUCCUUCGGGAUCAUUCAUGGCAA; assay: fluorescence turn-on during in vitro transcription; details: 25 mM NaCl, 8 mM MgCl2; 40 mM Tris-HCl pH 8.0, 2 mM spermidine, 5 mM DTT, 34 °C, 20 μM dye; NTPs, T7 RNAP present
# [2] = test system: Broccoli run-off transcript of the 251 bp T7 promoter-O1-Broccoli template (RNA, aptamer) GGCAAUUGUGAGCGGAUAACAAUUCUAGAUUGCCAUGUGUAUGUGGGAGACGGUCGGGUCCAGAUAUUCGUAUCUGUCGAGUAGAGUGUGGGCUCCCACAUACUCUGAUGAUCCUUCGGGAUCAUUCAUGGCAAGGAUCCG; assay: fluorescence turn-on during in vitro transcription; details: 25 mM NaCl, 8 mM MgCl2; 40 mM Tris-HCl pH 8.0, 2 mM spermidine, 5 mM DTT, 34 °C, 20 μM dye; NTPs, T7 RNAP present
structure (smiles),measurement,setting,value
CC1=N/C(=C\c2cc(F)c(O)c(F)c2)C(=O)N1CC(F)(F)F,binding,[1],yes
same,binding,[2],yes
